{
  "source": "patent US9732091B2",
  "about": "“Tryptophanol-derived oxazoloisoindolinones: small-molecule P53 activators” (UNIVERSIDADE DO PORTO, priority 2013, dated 2017)",
  "key": {"[1]": {"tested_on": "HCT116 p53^+/+", "assay": "SRB growth inhibition assay in HCT116 p53^+/+ colon carcinoma cells", "format": "cell-based, human", "protocol": "(§1) Tumor cells were plated at 5.0×10^3 cells/well in 96-well plates and incubated for 24 hours. Cells were then exposed to serial dilutions of SLMP53-1, CP-31398 or PRIMA-1 (from 1.85 to 150 μM). The effect of the compounds was analyzed following 48 hours incubation, using the sulforhodamine B (SRB) assay. The solvent DMSO corresponding to the maximum concentration used in these assays (0.025%) was included as control. The GI50 value, the concentration of compound that causes 50% growth inhibition, was calculated for the tested compounds. Results are the mean±S.E.M. of three independent experiments."}, "[2]": {"tested_on": "HCT116 p53^−/− tumors", "assay": "xenograft mouse model, HCT116 p53^−/− tumors", "format": "in vivo, BALB/c mice", "details": "four intraperitoneal injections of 50 mg/kg, preliminary", "protocol": "(§2) FIG. 10 illustrates the antitumor activity of SLMP53-1 in vivo. BALB/c mice, 4-6 weeks old, were implanted subcutaneous xenografts using 1.5×10^6 HCT116 p53^+/+ or HCT116 p53^−/− cells. The treatment was initiated when palpable tumors were established (14 days after the cells were injected), and consisted in 4 intraperitoneal injections (2× per week) of vehicle (control) or 50 mg/kg of SLMP53-1. Xenografts were measured during 24 days. Relative tumor volumes were plotted for control and treated groups by dividing the average tumor volume for each data point by average starting tumor volume.\n(§3) Currently, the toxicity and antitumor activity of SLMP53-1 are under study in vivo using xenograft mouse models. […] Because p53-null tumors were not suppressed, it was confirmed that SLMP53-1 inhibited the tumor growth in a wt p53-dependent manner."}, "[3]": {"assay": "apparent permeability coefficients", "format": "in vitro ADME"}, "[4]": {"tested_on": "HCT116 p53^+/+ tumors", "assay": "xenograft mouse model, HCT116 p53^+/+ tumors", "format": "in vivo, BALB/c mice", "details": "four intraperitoneal injections of 50 mg/kg, vs vehicle, preliminary", "protocol": "as §2, §3"}, "[5]": {"tested_on": "MDA-MB-231 breast tumor cells", "assay": "Western blot of p53 and p53-target proteins, PARP cleavage, MDA-MB-231", "format": "cell-based, human", "details": "16.6 μM (GI50), 24/48 hours", "from_the_text": "FIG. 7 illustrates that SLMP53-1 increases the levels of p53 and of proteins encoded by p53-target genes in MDA-MB-231 breast tumor cells."}, "[6]": {"tested_on": "human lymphocytes", "assay": "cytokinesis-block micronucleus assay", "format": "cell-based", "protocol": "Concerning the genotoxicity assays, three concentrations (15.5, 7.25 and 1.55 μM) of SLMP53-1 were tested, in vitro, for potential genotoxicity to human lymphocytes. For that purpose, the cytokinesis-block micronucleus assay (an assay routinely used in mutagen/carcinogen screening programs) was used, which measures the ability of genotoxic agents to induce both chromosomal damage (clastogenic) and/or spindle dysfunction (aneugenic) effects."}, "[7]": {"tested_on": "HCT116 p53^+/+ cells", "assay": "apoptosis by flow cytometry (FITC-Annexin V and propidium iodide), HCT116 p53^+/+", "format": "cell-based, human", "details": "GI50 and double GI50, 24 hours", "protocol": "(§4) Apoptosis was analyzed by flow cytometry using FITC-Annexin V and propidium iodide. The effect of compounds was analyzed after 24 hours treatment using the concentration of GI50 and double GI50. Histograms represent one of two independent experiments; quantification of cells in apoptosis represents the mean±S.E.M. of two independent experiments."}, "[8]": {"tested_on": "MDA-MB-231 cells", "assay": "apoptosis by flow cytometry (FITC-Annexin V and propidium iodide), MDA-MB-231", "format": "cell-based, human", "details": "GI50, 24 hours", "protocol": "as §4, with “of” for “of GI50 and double”"}, "[9]": {"molecular_target": "T1, mutant p53 R280K (Homo sapiens, UniProt P04637, R280K)", "T1 construct": "expressed in transfected cells", "assay": "reactivation of mutant p53 in yeast (growth, CFU), R280K", "format": "cell-based", "details": "10 μM; yeast expressing R280K; 44 hours", "protocol": "(§5) FIG. 6 illustrates that SLMP53-1 reactivates mutant p53s R273H, R175H and R280K in yeast. Yeast cells expressing R273H, R280K, Y220C or R175H were incubated in selective medium with 10 μM of SLMP53-1, 10 μM of CP-31398 (for R273H), 10 μM of PRIMA-1 (for R175H and R280K), 50 μM of PhiKan 083 (for Y220C) or DMSO only, for 44 hours. CP-31398, PRIMA-1 and PhiKan 083 were used as positive controls. Results are plotted setting as 100% growth the number of CFU obtained in the presence of DMSO only.\n(§6) It is also shown that SLMP53-1 can reactivate some mutant p53 forms, particularly R273H, R280K and R175H (FIG. 6)."}, "[10]": {"tested_on": "MDA-MB-231 (p53R280K)", "assay": "SRB growth inhibition assay in MDA-MB-231 breast cancer cells", "format": "cell-based, human", "details": "Homo sapiens, 48 hours incubation, mean±S.E.M.", "protocol": "as §1, with “7.5×10^3” for “5.0×10^3”, “incubation period,” for “incubation,”, “value, which is” for “value,”"}, "[11]": {"tested_on": "HCT116 p53^−/−", "assay": "Western blot of p53-target proteins, PARP cleavage, HCT116 p53^−/−", "format": "cell-based, human", "details": "15.5 μM", "protocol": "FIG. 2 illustrates that SLMP53-1 increases the levels of proteins encoded by p53 target genes (MDM2, p21, PUMA and BAX), and leads to PARP cleavage in colon carcinoma cells with wt p53 (HCT116 p53^+/+), but not in colon carcinoma cells without wt p53 (HCT116 p53^−/−). Western blot analysis was performed for human colon carcinoma cells after 16 (B, D, E) and 24 (A, C, F) hours treatment with 15.5 μM of SLMP53-1, 135 nM doxorubicin (DOXO; positive control) or DMSO only. The protein expression levels were evaluated by quantification of Western Blot band intensity (with Bio-Profile Bio-1D++ software) using GAPDH as loading control."}, "[12]": {"molecular_target": "T2, mutant p53 R175H (Homo sapiens, UniProt P04637, R175H)", "T2 construct": "expressed in transfected cells", "assay": "reactivation of mutant p53 in yeast (growth, CFU), R175H", "format": "cell-based", "details": "10 μM; yeast expressing R175H; 44 hours", "protocol": "as §5, §6"}, "[13]": {"details": "HCT116 p53^+/+ vs HCT116 p53^−/−"}},
  "note": "“Also recorded” adds a separate entry of the source.",
  "data": [
    {"smiles": "C[C@]12OC[C@H](Cc3c[nH]c4ccccc34)N1C(=O)c1ccccc12", "note": "[SLMP53-1]", "values": [
      {"measurement": "GI50 in HCT116 p53^+/+ cells lower than in HCT116 p53^−/− cells", "setting": "[1]; [13]", "value": 2, "unit": "fold"},
      {"measurement": "p53 dependence of anti-proliferative effect", "setting": "[1]; [13]", "value": "p53-dependent anti-proliferative effect"},
      {"measurement": "GI50", "setting": "[1]; Homo sapiens, HCT-116, HCT116 p53^+/+, 48 hours incubation, SRB, mean±S.E.M.", "value": "15.5 ± 1.6", "unit": "µM"},
      {"measurement": "tumor growth", "setting": "[2]", "value": "without apparent effects"},
      {"measurement": "apparent permeability coefficients", "setting": "[3]", "value": "favorable"},
      {"measurement": "tumor growth", "setting": "[4]", "value": "considerably suppressed"},
      {"measurement": "PARP cleavage", "setting": "[5]", "value": "lead to PARP cleavage"},
      {"measurement": "levels of p53 and of BAX, PUMA and p21", "setting": "[5]", "value": "increased"},
      {"measurement": "cytotoxic and genotoxic effects", "setting": "[6]", "value": "no cytotoxic and genotoxic effects were observed"},
      {"measurement": "mutagenic potential (micronuclei frequency vs negative control)", "setting": "[6]; 15.5, 7.25 and 1.55 μM, human lymphocytes, in vitro", "value": "does not possess mutagenic potential"},
      {"measurement": "apoptosis", "setting": "[7]", "value": "induces early and late apoptosis; also recorded: apoptotic cell death"},
      {"measurement": "apoptosis", "setting": "[8]", "value": "induces late apoptosis; also recorded: apoptotic cell death"},
      {"measurement": "yeast growth inhibition", "setting": "[9]", "value": "significant growth inhibition"},
      {"measurement": "GI50", "setting": "[10]", "value": "16.6 ± 4.2", "unit": "µM"},
      {"measurement": "PARP cleavage", "setting": "[11]", "value": "did not induce PARP cleavage"},
      {"measurement": "expression levels of MDM2, p21, PUMA and Bax", "setting": "[11]", "value": "did not interfere"},
      {"measurement": "yeast growth inhibition", "setting": "[12]", "value": "significant growth inhibition"}
    ]}
  ]
}
